Assay: Solubility of eosin in oil and organic solvent
Assay type: physicochemical
Protocol: A water/oil microemulsion was prepared as follows: 1.0 ml isopropyl myristate was added to 1.4 ml of a surfactant mixture consisting of polyoxyethylene sorbitan monooleate (Tween 80): sorbitan monolaurate (Span 20): ethanol in a 45:30:25 volume ratio. Next, 0.6 ml of a 6% (w/v) eosin Y solution was added and the mixture briefly vortexed until an optically clear, single phase solution resulted (it was confirmed that eosin was not soluble in the oil or the ethyl acetate prior to formulation of the microemulsion nanocapsules).
A water/oil microemulsion was prepared by adding 0.5 ml hexadecane to a surfactant mixture consisting of polyoxyethylene sorbitan monooleate (Tween 80): sorbitan monolaurate (Span 20): ethanol in a 45:30:25 volume ratio. To that mixture, 0.35 ml of a 6% (w/v) eosin Y solution was added. […] Nanoparticles were formed and the eosin encapsulation was measured as described in Example 1. The amount of eosin incorporated into nanocapsules was 98% of the initial quantity added.

Question: Which “solubility of eosin in hexadecane” value (conditions of Example 2) does the source give for O=C1OC2(c3ccccc31)c1cc(Br)c(O)c(Br)c1Oc1c2cc(Br)c(O)c1Br [eosin, eosin Y] here?
Answer: not to be soluble

Question: What about the “solubility of eosin in the oil or the ethyl acetate” value (oil = isopropyl myristate, prior to formulation of the microemulsion nanocapsules) of the same molecule?
Answer: not soluble
